According to patent publication US4216142A, “Chromogenic substrates for the proteolytic enzymes” (Abbott Laboratories, priority 1978, dated 1980):

Tested on: human thrombin
Assay: kinetic analysis of chromogenic substrate hydrolysis by thrombin
Assay type: biochemical
Conditions: substrate 0.1 M in 0.17 M Tris buffer, pH 7.4; human thrombin 0.63 mg/ml; 37° C.; monitored at 405 nm
Method: The enzyme and the substrate are mixed in a buffer solution, and the reaction is followed spectrophotometrically for 2 to 30 minutes. The concentration of substrate [S] is varied, whereas the enzyme concentration [E] is kept constant. If the extinction (OD) (=optical density) is plotted in a coordinate system as a function of time, a curve is obtained the tangent of which (difference in extinction per minute, Δ OD/minute, from which the quantity in μmoles of pNA/min(v) can be calculated) at time zero corresponds to the initial course of the hydrolysis. By means of this tangent the initial rate of the hydrolysis can be determined.
If l/v is plotted against l/[S], a Lineweaver-Burk diagram is obtained from which vmax and Km can be determined graphically. Thus Km and kcat can be determined.

Substance: sarcosylprolylarginine-p-nitrophenylanilide hydrochloride [Sar-Pro-Arg-pNA.2HCl]
- Km: 920 µM
- kcat: 158 s⁻¹
